Measurements reported in patent US20230126411A1, “DEUTERIUM MAGNETIC RESONANCE IMAGING” (University of Florida Research Foundation, Inc., priority 2020, published 2023).

Columns and labels:
[1] = T1 inversion recovery NMR of lactate isotopomers, HDO and standards in cell media; type: physicochemical; conditions: 25° C., cell medium; for deuterium T1 relaxation time: 2H-NMR 92.13 MHz; for proton T1 relaxation time: 1H-NMR 600.23 MHz, 2H-decoupling on
Description: (§1) All NMR spectra were recorded on a 600.23 MHz NMR, equipped with a 1.7 mm TCI CryoProbe and Avance Neo Console (Bruker Biospin). All NMR experiments were set up in the lock off followed by sweep off mode. ^2H-decoupling off and on ^1H-NMR spectra were acquired with a sequence that alternated decoupling with each scan. Relaxation delay (d1) of 1.5s and acquisition time (AQ) of 2s (3.5s of recycling time, Tr) and a 90° pulse of 10.50 μs was used for acquisition of each of the spectra. The WET method containing selective pulses was applied on the strong water resonance (M o, H. & Raftery, D. J. Biomol. NMR 2008 41:105-111). Waltz16 ^2H-decoupling sequence consists of 90° pulse of 250 μs with decoupling power of 1.72watts, producing B, of 1 kHz during the acquisition period. 13,157 complex data points were acquired with the spectral width of 11 ppm. 128 scans were used to acquire each spectrum. 4 dummy scans were also used for equilibration of the spin states prior to acquisition. A modified T1 inversion recovery pulse sequence with ^2H-decoupling on during the acquisition was used to measure the T1 of the lactate isotopomers and pyrazine standard. Relaxation delay (d1) of 50s and inversion recovery delays (T) of 0.001, 0.6, 0.9, 1.5, 2.0, 3.0, 6.0, 9.0, 14.0, 20.0, 30.0 and 40.0s were used to determine the T1 of lactate isotopomers.
(§2) The deuterium lock channel was used to acquire the ^1H-decoupled ^2H-NMR spectrum at 92.13 MHz resonant frequency. Relaxation delay (d1) of 2s and acquisition time (AQ) of 1s (3s of recycling time, Tr) with a 90° pulse was used to acquire each of the ^2H-NMR spectra. 1086 complex data points were digitized with the spectral width of 11 ppm using 1024 scans for each of the 5 FIDs (5120 scans) for each of the samples. T1 inversion recovery pulse sequence was used to calculate the T1 relaxation times of HDO and pyrazine-D4 standard. Relaxation delay (d1) of 5s, acquisition time (AQ) of 1s and inversion recovery delays (T) of 0.001, 0.1, 0.4, 0.8, 1.6, and 3.2s were used to acquire an array of FIDs to calculate the T1 of HDO and pyrazine-D4. All NMR experiments were carried out at the room temperature (25° C.). ^1H-NMR Data Processing and Quantification of Lactate Isotopomers
Once the lactate isotopomers were identified, it would be expected to observe differential changes in T1 due to a loss of ^1H dipolar relaxation. T1 inversion recovery experiments were performed in the ^2H-decoupling on mode to calculate the T1 relaxation time of the pyrazine and lactate isotopomers. […] A and B marks on the uppermost spectrum represent the pyrazine standard and methyl signals of the lactate isotopomers respectively. Integral areas of each of the lactate isotopomers and pyrazine standard were extracted to calculate the T1 relaxation times. Data was fit to the standard T1 equation, Mz(t)=M0(1-2*^T/T1), to extract the T1s. […] T1 relaxation time of the HDO and pyrazine-D4 standard were calculated using the inversion recovery ^2H-NMR data (FIG. 10) and found to be 0.49s and 0.45s respectively.

[2] = system: rat brain; experiment: Deuterium MR spectroscopy of rat brain and plasma 2H NMR after tail vein infusion of [2H7]glucose
From the text: All experimental procedures were approved by the University of Florida Institutional Animal Care and Use Committee. Female Sprague Dawley rats (body weight: ˜220 g) were purchased from Jackson Laboratories and acclimatized in the University's animal care facilities. All rats were in the fed state. The rat was anesthetized with 2% isoflurane in a mixture of O2 and N2 gases. The tail vein was catheterized using a 23-gauge needle for the infusion of [^2H7]glucose tracer. The body temperature of the rat was maintained at 37° C. using a heated circulating water pad. The respiratory rate was monitored during the entire period of the experiment. After shimming the magnet, three baseline ^2H spectra were acquired. Subsequently, a 2 minute tail vain infusion of [^2H7]glucose (1.95 g/kg body weight and dissolved in 2.3 mL saline) was administered. Blood was drawn after the end of spectroscopy and imaging experiments via saphenous vein and blood plasma was separated by centrifugation of the blood at 4° C. for 10 minutes. Circulating blood glucose was assessed by a blood draw and glucometer (Evancare, Medline Industries, Northfield, IL) prior to infusion and 3 hours after the glucose injection.
Animal experiments were performed on an 11.1 T Magnex magnet (Magnex Scientific Ltd.) interfaced to a BrukerAvance Ill HD console running on ParaVision 6.0.1 (Bruker Instruments, Billerica, Mass.). The MRI system was equipped with RRI BFG-240/120-S6 gradient coil with the bore size of 120 mm and capable of producing 100 mT/m with 200 μs rise time. A shim map was generated for localized shimming on rat brain using an 85 mm home-built, actively-decoupled, linear volume ^1H transmit-receive coil. The coil was tuned to the ^1H NMR frequency at 470 MHz. A home-built 14 mm diameter, circular surface coil tuned to 72.26 MHz was used to acquire ^2H spectra and images.
The ^2H coil was placed over the rat head and a 3D printed phantom containing approximately 200 μl of natural abundance water was placed on the top of the coil to confirm positioning. The ^2H RF pulse and flip angle were optimized to maximize the ^2H signals from the rat brain. A partial signal contribution from the natural abundance ^2H of the water phantom was unavoidable but was accounted for by subtraction of the signal areas from runs that followed the glucose injection. […] Spectra were acquired with a 1 kHz width and 256 data points for each free induction decay (FID), a repetition time of 300 ms, and a flip angle of 60° with 256 averages. The total acquisition time for each spectrum was 1.28 minutes. A total of 30 spectra were acquired for a 38-minute time period. Two additional ^2H NMR spectra from the rat brain were acquired at 2 hours and 2.5 hours following [^2H7]glucose infusion. Pyrazine-D4 (2.5 mM, internal standard) was added in each plasma sample to calculate the HDO concentration in plasma. ^2H NMR spectra were collected on Bruker 14 T NMR magnet system equipped with a 1.7 mm TCl CryoProbe and Avance Neo console (Bruker BioSpin). ^2H NMR spectra of plasma samples were acquired at 92.13 MHz resonant frequency with an acquisition time of 1.0 s, relaxation delay of 2 s, and 3072 scans.
^2H NMR data analysis was performed using MestReNova v14.0.1-23284 (Mestrelab Research S. L., Santiago, Spain). For processing of the ^2H NMR, each spectrum was Fourier transformed with an exponential window function of 2.0 Hz, zero-filling of 512 data points and automatic phase correction was also applied. Peak areas were extracted for HDO, [^2H7]glucose including the anomeric signal, deuterated glx (glutamate/glutamine) and lactate from the ^2H NMR spectra of the rat brain. 2D ^1H and ^2H images were processed in the ImageJ software (NIH, Bethesda, Md.).

[3] = system: AML12 cells; experiment: [2H7]glucose consumption, lactate isotopomer and HDO production in cell media by 1H/2H-NMR; type: cell-based; conditions: for concentration of consumed [2H7]glucose / produced lactate isotopomers and HDO in cell media: 5.5 mM [2H7]glucose; for number of μmol of 2H: 2H mass balance
Description: (§3) HUH-7 or AML12 cell lines were cultured in a complete growth medium made up of Dulbecco's Modified Eagle Medium (DMEM) with 10% v/v FBS, 10,000 units/mL penicillin, 10,000 μg/mL streptomycin, 25 μg/mL amphotericin B and 5.5 mM [^2H7]glucose. Cell lines were maintained at 37° C. in a 5% CO2 in air atmosphere in an air-jacketed incubator (Heracell Vios 160i, Thermo Scientific, Waltham, Mass.). Growth media was replaced every 3 days, and subcultured 1:5 at 80% confluence. 25 cm^2 cell culture plates, containing 15 million HUH-7 or AML12 cells at 70-80% confluence, were washed once with warm PBS and incubated with 4 mL each of DMEM with deuterated tracer for 5h, withdrawing 100 μL aliquots at 20 min, 1h, 2h, and 5h.
(§4) No extraction was performed on the cell media samples. Pyrazine and pyrazine-D4 were mixed to achieve 5 mM concentration of each of the standards in each cell media samples of HUH-7 and AML12 cells. Pyrazine and pyrazine-D4 served as an internal standard to quantify the lactate isotopomers from ^1H-NMR data and HDO as well as residual [^2H7]glucose from ^2H-NMR data respectively. 40 μL of cell medium was transferred into 1.7 mm NMR tubes for NMR analysis. ^1H-NMR Spectroscopy
as §1, §2
(§5) For processing of the ^1H-NMR spectrum, the spectra were zero-filled to 32,768 points with an exponential window function of 0.3 Hz before the Fourier Transform (FT). Manual phase and automatic spline baseline correction were performed on each of the spectra. ^2H-decoupled ^1H-NMR spectra of each time point were used for the extraction of the areas of lactate isotopomers. The MestReNova line fitting tool was used to extract the peak areas of the slightly overlapped signals for quantification of the lactate isotopomers. […]

[4] = system: HUH-7 hepatocellular carcinoma cells; experiment: as above; type: cell-based; conditions: for concentration of consumed [2H7]glucose / produced lactate isotopomers and HDO in cell media: 5.5 mM [2H7]glucose; for number of μmol of 2H: 2H mass balance; for rate of production of lactate isotopomer: efflux into medium, linear regression over incubation time
Description: as §3, §4, §1, §2, §5

Compound | concentration of consumed [2H7]glucose / produced lactate isotopomers and HDO in cell media ([3]; 5 hour time point) | number of μmol of 2H ([3]; 5 hour time point) | concentration of consumed [2H7]glucose / produced lactate isotopomers and HDO in cell media ([4]; 5 hour time point) | number of μmol of 2H ([4]; 5 hour time point) | proton T1 relaxation time [1] | rate of production of lactate isotopomer [4] | also measured
[2H]O [HDO, hydrogen-deuterium oxide] | 2003.12 µmol/L | 2003.12 µmol | 18240.0 µmol/L | 18240.0 µmol |  |  | deuterium T1 relaxation time [1]: 0.49 s; final body water HDO enrichment ([2]; rat blood plasma at end of experiment, n=4): 86.9 ± 5.16 mM; final estimated HDO concentration in brain ([2]; rat brain, longer time points (2.5 hrs) post-[2H7]glucose infusion, N=3): approximately 48±10 mM; final HDO signal relative to natural abundance signal ([2]; rat brain, longer time points post-infusion): approximately 3.5 ×; time range of pseudo-steady state of HDO (and HDO plus lactate) to glx ratios ([2]; rat brain, post-[2H7]glucose infusion): 10 to 24 min; body water enrichment of HDO relative to brain concentration ([2]; rat, final time point): approximately 1.8 ×
[2H]CC(O)C(=O)O (stereo not drawn) [Lactate-CH2D] | 229.26 µmol/L | 229.26 µmol | 1520.0 µmol/L | 1520.0 µmol | 2.49 s | 0.35 micromol/10^6 cells/min | 
[2H]C([2H])C(O)C(=O)O (stereo not drawn) [Lactate-CHD2] | 353.07 µmol/L | 706.14 µmol | 2442.47 µmol/L | 4884.9 µmol | 4.21 s | 0.57 micromol/10^6 cells/min | concentration of lactate-CHD2 relative to the -CH2D isotopomer ([4]; 5 hour time point): 1.6 fold
CC(O)C(=O)O (stereo not drawn) [lactate-CH3] |  |  |  |  | 1.85 s | 0.17 micromol/10^6 cells/min | 
c1cnccn1 [pyrazine, Pyrazine, reference compound] |  |  |  |  | 6.45 s |  | 
[2H]c1nc([2H])c([2H])nc1[2H] [pyrazine-D4, Pyrazine-D4, reference compound] |  |  |  |  |  |  | deuterium T1 relaxation time [1]: 0.45 s
[1,2,3,4,5,6,6-^2H7]-D-glucose [[^2H7]glucose, reference compound] | 586.52 µmol/L | 4105.60 µmol | 3650.0 µmol/L | 25550.0 µmol |  |  | fate of the glucose bolus in brain ([2]; rat, in vivo): almost completely metabolized; time of peak delivery of [2H7]glucose into the brain ([2]; rat, in vivo): approximately 10 minutes post infusion; final blood glucose concentration ([2]; rat, 3 hours after injection of 1.95 g/kg [2H7]glucose, n=4): 7.1 ± 1.8 mM; Number of μmol of 2H in 2H-lactate & HDO ([3]; 5 hour time point, sum): 2938.52 µmol; [2H7]glucose uptake and HDO and 2H-lactate production compared to HUH-7 ([3]; qualitative): much lower; 2H atoms of [2H7]glucose incorporated into 2H-lactate and HDO ([4]; 2H mass balance at 5 hour time point): Approximately 96%; Number of μmol of 2H in 2H-lactate & HDO ([4]; 5 hour time point, sum): 24644.9 µmol; cellular [2H7]glucose uptake and HDO production rate compared to AML12 cells ([4]; qualitative, stacked 2H-NMR spectra): very high
